Experiment: mn = molality of the nth substance listed, in mol/kg
Conditions: 298.15 K, Liquid, Frequency=10 MHz, Single path-length method

CC(C)C[C@H](NC(=O)CN)C(=O)NCC(=O)O [glycyl-L-leucylglycine] + O
speed of sound [m/s]
Conditions | 10000 kPa | 20000 kPa | 40000 kPa | 60000 kPa | 80000 kPa | 100000 kPa | 120000 kPa
m1 = 0.02682 | 1517.5 | 1534.2 | 1567.7 | 1601.1 | 1634.4 | 1667.5 | 1700.2
m1 = 0.03524 | 1518.6 | 1535.4 | 1568.9 | 1602.3 | 1635.6 | 1668.7 | 1701.4
m1 = 0.04618 | 1520.2 | 1537 | 1570.6 | 1604 | 1637.2 | 1670.2 | 1702.9
m1 = 0.05878 | 1522.1 | 1538.9 | 1572.4 | 1605.8 | 1639 | 1672 | 1704.7
m1 = 0.06956 | 1523.7 | 1540.5 | 1574 | 1607.3 | 1640.6 | 1673.5 | 1706.2
m1 = 0.07978 | 1525.2 | 1542 | 1575.5 | 1608.8 | 1642 | 1674.9 | 1707.5

NCC(=O)N[C@@H](CC(N)=O)C(=O)NCC(=O)O [glycyl-L-asparaginylglycine] + O
speed of sound [m/s]
Conditions | 10000 kPa | 20000 kPa | 40000 kPa | 60000 kPa | 80000 kPa | 100000 kPa | 120000 kPa
m1 = 0.01982 | 1515.6 | 1532.4 | 1566 | 1599.5 | 1632.8 | 1666 | 1698.8
m1 = 0.02619 | 1516.3 | 1533.1 | 1566.7 | 1600.2 | 1633.5 | 1666.7 | 1699.6
m1 = 0.02894 | 1516.6 | 1533.4 | 1567.1 | 1600.5 | 1633.9 | 1667 | 1699.9
m1 = 0.03507 | 1517.3 | 1534.1 | 1567.8 | 1601.3 | 1634.6 | 1667.8 | –
m1 = 0.03983 | 1517.8 | 1534.6 | 1568.3 | 1601.8 | 1635.1 | 1668.3 | –

NCC(=O)N[C@@H](Cc1ccc(O)cc1)C(=O)NCC(=O)O [glycyl-L-tyrosylglycine] + O
speed of sound [m/s]
Conditions | 10000 kPa | 20000 kPa | 40000 kPa | 60000 kPa | 80000 kPa | 100000 kPa | 120000 kPa
m1 = 0.02297 | 1516.3 | 1533.1 | 1566.7 | 1600.1 | 1633.5 | 1666.6 | 1699.5
m1 = 0.02401 | 1516.5 | 1533.2 | 1566.8 | 1600.3 | 1633.6 | 1666.8 | 1699.6
m1 = 0.02562 | 1516.7 | 1533.5 | 1567 | 1600.5 | 1633.9 | 1667 | 1699.8
m1 = 0.02676 | 1516.8 | 1533.6 | 1567.2 | 1600.7 | 1634 | 1667.1 | 1700
m1 = 0.02756 | 1516.9 | 1533.7 | 1567.3 | 1600.8 | 1634.1 | 1667.3 | 1700.1
m1 = 0.02905 | 1517 | 1533.9 | 1567.4 | 1601 | 1634.3 | 1667.5 | 1700.3

NCC(=O)NCC(=O)NCC(=O)O [glycylglycylglycine] + O
speed of sound [m/s]
Conditions | 10000 kPa | 20000 kPa | 40000 kPa | 60000 kPa | 80000 kPa | 100000 kPa | 120000 kPa
m1 = 0.03621 | 1516.9 | 1533.8 | 1567.4 | 1600.8 | 1634.2 | 1667.4 | 1700.2
m1 = 0.0487 | 1518.2 | 1535 | 1568.6 | 1602.1 | 1635.5 | 1668.6 | 1701.4
m1 = 0.06185 | 1519.5 | 1536.3 | 1570 | 1603.4 | 1636.8 | 1669.9 | 1702.8
m1 = 0.07503 | 1520.8 | 1537.7 | 1571.3 | 1604.8 | 1638.2 | 1671.3 | 1704
m1 = 0.08705 | 1522.1 | 1538.9 | 1572.5 | 1606.1 | 1639.4 | 1672.5 | 1705.2
m1 = 0.1005 | 1523.3 | 1540.2 | 1573.8 | 1607.4 | 1640.7 | 1673.8 | 1706.6
